Assay results published in patent US20010046987A1, “Oxazolidinones having a sulfoximine functionality” (priority 1999, published 2001).
Converted amounts (≈) assume the structure as drawn.

Tests used:
Type in all cases: cell-based
Moraxella catarrhalis = experiment: MIC by agar dilution, MCAT 30607; settings: for MIC: Moraxella catarrhalis, strain MCAT 30607, read-out: Antibacterial Activity Minimum Inhibitory Concentration MCAT 30607; for Antibacterial Activity Minimum Inhibitory Concentration MCAT 30607: strain MCAT 30607
Text: (§1) The in vitro activity of compounds of this invention can be assessed by standard testing procedures such as the determination of minimum inhibitory concentration (MIC) by agar dilution as described in “Approved Standard.

Staphylococcus aureus = experiment: MIC by agar dilution, SAUR 9213; settings: for MIC: Staphylococcus aureus, strain SAUR 9213, read-out: Antibacterial Activity Minimum Inhibitory Concentration SAUR 9213; for Antibacterial Activity Minimum Inhibitory Concentration SAUR 9213: strain SAUR 9213
Text: as §1

Streptococcus pneumoniae = experiment: MIC by agar dilution, SPNE 9912; settings: for MIC: Streptococcus pneumoniae, strain SPNE 9912, read-out: Antibacterial Activity Minimum Inhibitory Concentration SPNE 9912; for Antibacterial Activity Minimum Inhibitory Concentration SPNE 9912: strain SPNE 9912
Text: as §1

Enterococcus faecium = experiment: MIC by agar dilution, EFAE 12712; settings: for MIC: Enterococcus faecium, strain EFAE 12712, read-out: Antibacterial Activity Minimum Inhibitory Concentration EFAE 12712; for Antibacterial Activity Minimum Inhibitory Concentration EFAE 12712: strain EFAE 12712
Text: as §1

Enterococcus faecalis = experiment: MIC by agar dilution, EFAE 9217; settings: for MIC: Enterococcus faecalis, strain EFAE 9217, read-out: Antibacterial Activity Minimum Inhibitory Concentration EFAE 9217; for Antibacterial Activity Minimum Inhibitory Concentration EFAE 9217: strain EFAE 9217
Text: as §1

[1] = test system: Staphylococcus epidermidis; experiment: MIC by agar dilution, SEPI 30593; settings: for MIC: Staphylococcus epidermidis, strain SEPI 30593, read-out: Antibacterial Activity Minimum Inhibitory Concentration SEPI 30593; for Antibacterial Activity Minimum Inhibitory Concentration SEPI 30593: strain SEPI 30593
Text: as §1

H. influenzae = experiment: MIC by agar dilution, HINF 30063; settings: for MIC: Haemophilus influenzae, strain HINF 30063, read-out: Antibacterial Activity Minimum Inhibitory Concentration HINF 30063; for Antibacterial Activity Minimum Inhibitory Concentration HINF 30063: strain HINF 30063
Text: as §1

Streptococcus pyogenes = experiment: MIC by agar dilution, SPYO 152; settings: for MIC: Streptococcus pyogenes, strain SPYO 152, read-out: Antibacterial Activity Minimum Inhibitory Concentration SPYO 152; for Antibacterial Activity Minimum Inhibitory Concentration SPYO 152: strain SPYO 152
Text: as §1

| MIC (Moraxella catarrhalis) | MIC (Staphylococcus aureus) | MIC (Streptococcus pneumoniae) | MIC (Enterococcus faecium) | MIC (Enterococcus faecalis) | MIC [1] | MIC (H. influenzae) | MIC (Streptococcus pyogenes) | Structure (SMILES) | Antibacterial Activity Minimum Inhibitory Concentration MCAT 30607 (Moraxella catarrhalis) | Antibacterial Activity Minimum Inhibitory Concentration SAUR 9213 (Staphylococcus aureus) | Antibacterial Activity Minimum Inhibitory Concentration SPNE 9912 (Streptococcus pneumoniae) | Antibacterial Activity Minimum Inhibitory Concentration EFAE 12712 (Enterococcus faecium) | Antibacterial Activity Minimum Inhibitory Concentration EFAE 9217 (Enterococcus faecalis) | Antibacterial Activity Minimum Inhibitory Concentration SEPI 30593 [1] | Antibacterial Activity Minimum Inhibitory Concentration HINF 30063 (H. influenzae) | Antibacterial Activity Minimum Inhibitory Concentration SPYO 152 (Streptococcus pyogenes) |
| --- | --- | --- | --- | --- | --- | --- | --- | --- | --- | --- | --- | --- | --- | --- | --- | --- |
| 2 µg/mL (≈ 4.68 µM) | 1 µg/mL (≈ 2.34 µM) | 0.25 µg/mL (≈ 0.585 µM) | 1 µg/mL (≈ 2.34 µM) | 0.5 µg/mL (≈ 1.17 µM) | 0.5 µg/mL (≈ 1.17 µM) | 8 µg/mL (≈ 18.7 µM) | 0.25 µg/mL (≈ 0.585 µM) | CCC(=S)NC[C@H]1CN(c2ccc([C@H]3CC[S@+2]([O-])([N-]C)CC3)c(F)c2)C(=O)O1 [Example 13, N-({(5S)-3-[3-Fluoro-4-[1-(methylimino)-1-oxidohexahydro-1λ^4-thiopyran-4-yl]phenyl]-2-oxo-1,3-oxazolidin-5-yl}methyl)propanethioamide, Z-isomer] |  |  |  |  |  |  |  |  |
| 8 µg/mL (≈ 18.7 µM) | 4 µg/mL (≈ 9.36 µM) | 0.5 µg/mL (≈ 1.17 µM) | 2 µg/mL (≈ 4.68 µM) | 2 µg/mL (≈ 4.68 µM) | 1 µg/mL (≈ 2.34 µM) | 8 µg/mL (≈ 18.7 µM) | 1 µg/mL (≈ 2.34 µM) | CCC(=S)NCC1CN(c2ccc(C3CC[S+2]([O-])([N-]C)CC3)c(F)c2)C(=O)O1 [Example 32, N-[((5S)-3-{3-Fluoro-4-[1-(methylimino)-1-oxidohexahydro-1λ^4-thiopyran-4-yl]phenyl}-2-oxo-1,3-oxazolidin-5-yl)methyl]propanethioamide, E-isomer] |  |  |  |  |  |  |  |  |
|  |  |  |  |  |  |  |  | CCC(=S)NC[C@H]1CN(c2ccc(C3CCS(=O)(=NCCO)CC3)c(F)c2)C(=O)O1 (single isomer, unassigned) [Example 24] | 4 µg/mL | 2 µg/mL | 0.25 µg/mL | 1 µg/mL | 1 µg/mL | 0.5 µg/mL | 4 µg/mL | 0.5 µg/mL |
|  |  |  |  |  |  |  |  | CC(=O)NC[C@H]1CN(c2ccc(N3CCS(=N)(=O)CC3)c(F)c2)C(=O)O1 [PREP 1, N-({(5S)-3-[3-Fluoro-4-(1-imino-1-oxido-1λ^4,4-thiazinan-4-yl)phenyl]-2-oxo-1,3-oxazolidin-5-yl}methyl)acetamide] | 8 µg/mL | 16 µg/mL | 1 µg/mL | 4 µg/mL | 8 µg/mL | 4 µg/mL | 16 µg/mL | 2 µg/mL |
|  |  |  |  |  |  |  |  | COC(=O)N=S1(=O)CCC(c2ccc(N3C[C@H](CNC(=S)C4CC4)OC3=O)cc2F)CC1 (single isomer, unassigned) [Example 30] | 0.5 µg/mL | 1 µg/mL | 0.125 µg/mL | 0.5 µg/mL | 0.5 µg/mL | 0.5 µg/mL | 4 µg/mL | 0.5 µg/mL |
|  |  |  |  |  |  |  |  | CC(=O)NC[C@H]1CN(c2ccc(C3CCS(=O)(=NC(=O)NCc4ccccc4)CC3)c(F)c2)C(=O)O1 (single isomer, unassigned) [Example 34] | 16 µg/mL | 16 µg/mL | 1 µg/mL | 4 µg/mL | 4 µg/mL | 2 µg/mL | 32 µg/mL | 2 µg/mL |
|  |  |  |  |  |  |  |  | CC(=O)NC[C@H]1CN(c2ccc(C3CCS(=O)(=NC(=O)OCc4ccccc4)CC3)c(F)c2)C(=O)O1 (single isomer, unassigned) [Example 33] | 16 µg/mL | 8 µg/mL | 1 µg/mL | 4 µg/mL | 4 µg/mL | 2 µg/mL | 64 µg/mL | 1 µg/mL |
|  |  |  |  |  |  |  |  | CCC(=S)NC[C@H]1CN(c2ccc(C3CCS(=N)(=O)CC3)c(F)c2)C(=O)O1 (single isomer, unassigned) [Example 10] | 2 µg/mL | 1 µg/mL | 0.25 µg/mL | 0.5 µg/mL | 0.5 µg/mL | 0.25 µg/mL | 2 µg/mL | 0.25 µg/mL |
|  |  |  |  |  |  |  |  | CC(=S)NC[C@H]1CN(c2ccc(C3CCS(=N)(=O)CC3)c(F)c2)C(=O)O1 (single isomer, unassigned) [Example 9] | 2 µg/mL | 0.5 µg/mL | 0.25 µg/mL | 0.5 µg/mL | 0.5 µg/mL | 0.125 µg/mL | 2 µg/mL | 0.25 µg/mL |
|  |  |  |  |  |  |  |  | COC(=O)N=S1(=O)CCN(c2ccc(N3C[C@H](CNC(=S)C4CC4)OC3=O)cc2F)CC1 [Example 28, N-[((5S)-3-{3-Fluoro-4-(1-[(methoxycarbonyl)imino]-1-oxido-1λ^4,4-thiazinan-4-yl)phenyl}-2-oxo-1,3-oxazolidin-5-yl)methyl]cyclopropanecarbothioamide] | 2 µg/mL | 2 µg/mL | 0.25 µg/mL | 1 µg/mL | 1 µg/mL | 0.5 µg/mL | 4 µg/mL | 0.5 µg/mL |
| 4 µg/mL (≈ 9.33 µM) | 2 µg/mL (≈ 4.67 µM) | 0.25 µg/mL (≈ 0.583 µM) | 1 µg/mL (≈ 2.33 µM) | 1 µg/mL (≈ 2.33 µM) | 0.5 µg/mL (≈ 1.17 µM) | 4 µg/mL (≈ 9.33 µM) | 0.5 µg/mL (≈ 1.17 µM) | CCC(=S)NC[C@H]1CN(c2ccc(N3CCS(=O)(=NC)CC3)c(F)c2)C(=O)O1 [Example 25, N-[((5S)-3-{3-Fluoro-4-[1-(methylimino)-1-oxido-1λ^4,4-thiazinan-4-yl]phenyl}-2-oxo-1,3-oxazolidin-5-yl)methyl]propanethioamide] |  |  |  |  |  |  |  |  |
|  |  |  |  |  |  |  |  | CC(=O)N=S1(=O)CCC(c2ccc(N3C[C@H](CNC(C)=O)OC3=O)cc2F)CC1 (single isomer, unassigned) [Example 12] | 8 µg/mL | 8 µg/mL | 0.5 µg/mL |  | 2 µg/mL | 1 µg/mL | 16 µg/mL | 1 µg/mL |
